Assays:
[1] = tested on: Hepatitis C virus; assay: Antiviral activity against Hepatitis C virus infected in human HuH7 cells assessed as inhibition of HCV subgenomic replicon replication after 72 hrs by ELISA; assay type: functional, organism-based, Hepacivirus hominis, Huh-7
[2] = Inhibition of Hepatitis C virus full-length NS3/4A protease assessed as quenched-fluorogenic RET-S1 substrate cleavage incubated for 10 mins prior to substrate addition by FRET analysis; design: species or system Hepacivirus hominis
[3] = Hepatitis C virus, Huh-7, 72 h, read-out: EC50

Compound	EC50 [1, 3] [nM]	IC50 [2] [nM]	EC50 ([1]; huh-7)
CC(C)(C)OC(=O)N[C@H]1CCCCC/C=C\[C@@H]2C[C@@]2(C(=O)NS(=O)(=O)C2CC2)NC(=O)[C@@H]2C[C@@H](OC(=O)N3Cc4c(Cl)ccc(Cl)c4C3)CN2C1=O	7.3	1.7	–
CC(=O)O[C@@H]1C[C@H]2C(=O)N[C@]3(C(=O)NS(=O)(=O)C4CC4)C[C@H]3/C=C\CCCCC[C@H](NC(=O)OC(C)(C)C)C(=O)N2C1	3910	12	–
CC(C)(C)OC(=O)N[C@H]1CCCCC/C=C\[C@@H]2C[C@@]2(C(=O)NS(=O)(=O)C2CC2)NC(=O)[C@@H]2C[C@@H](NC(=O)c3nc4cc(Cl)ccc4s3)CN2C1=O	126	5.2	–
CC(C)(C)OC(=O)N[C@H]1CCCCC/C=C\[C@@H]2C[C@@]2(C(=O)NS(=O)(=O)C2CC2)NC(=O)[C@@H]2C[C@@H](OC(=O)N3Cc4ccccc4C(C)(C)C3)CN2C1=O	7.7	0.8	–
CC(C)(C)OC(=O)N[C@H]1CCCCC/C=C\[C@@H]2C[C@@]2(C(=O)NS(=O)(=O)C2(C)CC2)NC(=O)[C@@H]2C[C@@H](OC(=O)N3Cc4ccccc4C3)CN2C1=O	3.1	0.5	–
CC(C)(C)OC(=O)N[C@H]1CCCCC/C=C\[C@@H]2C[C@@]2(C(=O)NS(=O)(=O)C2CC2)NC(=O)[C@@H]2C[C@@H](OC(=O)N3Cc4ccc(C(F)(F)F)cc4C3)CN2C1=O	20	21	–
CC(C)(C)OC(=O)N[C@H]1CCCCC/C=C\[C@@H]2C[C@@]2(C(=O)NS(=O)(=O)C2CC2)NC(=O)[C@@H]2C[C@@H](OC(=O)N3Cc4cccc(Cl)c4C3)CN2C1=O	2.2	3	–
CC(C)(C)OC(=O)N[C@H]1CCCCC/C=C\[C@@H]2C[C@@]2(C(=O)NS(=O)(=O)Nc2ccccc2)NC(=O)[C@@H]2C[C@@H](OC(=O)N3Cc4ccccc4C3)CN2C1=O	30	2.2	–
CC(C)(C)OC(=O)N[C@H]1CCCCC/C=C\[C@@H]2C[C@@]2(C(=O)NS(=O)(=O)C2CC2)NC(=O)[C@@H]2C[C@@H](OC(=O)N3Cc4ccc(N)cc4C3)CN2C1=O	42	1.5	–
CC(C)(C)OC(=O)N[C@H]1CCCCC/C=C\[C@@H]2C[C@@]2(C(=O)NS(=O)(=O)C2CC2)NC(=O)[C@@H]2C[C@@H](OC(=O)N3CCc4c(F)ccc(F)c4C3)CN2C1=O	24	1.2	–
CC(C)(C)OC(=O)N[C@H]1CCCCC/C=C\[C@@H]2C[C@@]2(C(=O)NS(C)(=O)=O)NC(=O)[C@@H]2C[C@@H](OC(=O)N3Cc4ccccc4C3)CN2C1=O	156	6.6	–
O=C(N[C@H]1CCCCC/C=C\[C@@H]2C[C@@]2(C(=O)NS(=O)(=O)C2CC2)NC(=O)[C@@H]2C[C@@H](OC(=O)N3Cc4ccccc4C3)CN2C1=O)OC1CCCC1	4	1	–
CC(C)N(C(C)C)S(=O)(=O)NC(=O)[C@@]12C[C@H]1/C=C\CCCCC[C@H](NC(=O)OC(C)(C)C)C(=O)N1C[C@H](OC(=O)N3Cc4ccccc4C3)C[C@H]1C(=O)N2	139	70	–
O=C(N[C@H]1CCCCC/C=C\[C@@H]2C[C@@]2(C(=O)NS(=O)(=O)C2CC2)NC(=O)[C@@H]2C[C@@H](OC(=O)N3CCc4ccccc4C3)CN2C1=O)OC1CCCC1	6	1	–
CC(C)(C)OC(=O)N[C@H]1CCCCC/C=C\[C@@H]2C[C@@]2(C(=O)O)NC(=O)[C@@H]2C[C@@H](O)CN2C1=O	–	> 50000	Not Active
CC(C)(C)OC(=O)N[C@H]1CCCCC/C=C\[C@@H]2C[C@@]2(C(=O)NS(=O)(=O)C2CC2)NC(=O)[C@@H]2C[C@@H](O)CN2C1=O	2130	75	–
O=C(CCC(F)(F)F)N[C@H]1CCCCC/C=C\[C@@H]2C[C@@]2(C(=O)NS(=O)(=O)C2CC2)NC(=O)[C@@H]2C[C@@H](OC(=O)N3Cc4ccccc4C3)CN2C1=O	48	0.6	–
CC(C)(C)OC(=O)N[C@H]1CCCCC/C=C\[C@@H]2C[C@@]2(C(=O)NS(=O)(=O)C2CC2)NC(=O)[C@@H]2C[C@@H](OC(=O)N3CCc4ccc(Cl)cc4C3)CN2C1=O	65	4.1	–
CC(C)(C)OC(=O)N[C@H]1CCCCC/C=C\[C@@H]2C[C@@]2(C(=O)NS(=O)(=O)C2CC2)NC(=O)[C@@H]2C[C@@H](OC(=O)N3Cc4ccc(Cl)cc4C3)CN2C1=O	9.2	2	–
CC(C)(C)OC(=O)N[C@H]1CCCCC/C=C\[C@@H]2C[C@@]2(C(=O)NS(=O)(=O)N2CCNCC2)NC(=O)[C@@H]2C[C@@H](OC(=O)N3Cc4ccccc4C3)CN2C1=O	509	22	–
CC(C)(C)OC(=O)N[C@H]1CCCCC/C=C\[C@@H]2C[C@@]2(C(=O)NS(=O)(=O)C2CC2)NC(=O)[C@@H]2C[C@@H](OC(=O)N3Cc4ccc(F)cc4C3)CN2C1=O	4	3	–
CC(C)(C)NC(=O)N[C@H]1CCCCC/C=C\[C@@H]2C[C@@]2(C(=O)NS(=O)(=O)C2CC2)NC(=O)[C@@H]2C[C@@H](OC(=O)N3Cc4ccccc4C3)CN2C1=O	38	2.4	–
CC(C)(C)OC(=O)N[C@H]1CCCCCC[C@@H]2C[C@@]2(C(=O)NS(=O)(=O)C2CC2)NC(=O)[C@@H]2C[C@@H](OC(=O)N3Cc4cccc(F)c4C3)CN2C1=O	22.5	1.5	–
CC(C)S(=O)(=O)NC(=O)[C@@]12C[C@H]1/C=C\CCCCC[C@H](NC(=O)OC(C)(C)C)C(=O)N1C[C@H](OC(=O)N3Cc4ccccc4C3)C[C@H]1C(=O)N2	21	4.8	–
CC(C)(C)OC(=O)N[C@H]1CCCCC/C=C\[C@@H]2C[C@@]2(C(=O)NS(=O)(=O)C2CC2)NC(=O)[C@@H]2C[C@@H](OC(=O)N3CCc4cc(C(F)(F)F)ccc4C3)CN2C1=O	35	2.6	–

The remaining lines, values ahead:

EC50 [1, 3] [nM]	IC50 [2] [nM]	EC50 ([1]; huh-7)	Compound
194	37	–	CC(C)(C)OC(=O)N[C@H]1CCCCC/C=C\[C@@H]2C[C@@]2(C(=O)NS(=O)(=O)C(C)(C)C)NC(=O)[C@@H]2C[C@@H](OC(=O)N3Cc4ccccc4C3)CN2C1=O
5.1	0.7	–	CC(C)(C)OC(=O)N[C@H]1CCCCC/C=C\[C@@H]2C[C@@]2(C(=O)NS(=O)(=O)C2CC2)NC(=O)[C@@H]2C[C@@H](OC(=O)N3Cc4c(F)ccc(F)c4C3)CN2C1=O
> 10000	470	–	CC(C)(C)OC(=O)N[C@H]1CCCCC/C=C\[C@@H]2C[C@@]2(C(=O)NS(=O)(=O)C2CC2)NC(=O)[C@@H]2C[C@@H](NS(=O)(=O)c3cccc4ccccc34)CN2C1=O
58	3	–	CC(C)(C)OC(=O)N[C@H]1CCCCC/C=C\[C@@H]2C[C@@]2(C(=O)NS(=O)(=O)c2ccc(Cl)cc2)NC(=O)[C@@H]2C[C@@H](OC(=O)N3Cc4ccccc4C3)CN2C1=O
24	1.8	–	CC(C)(C)OC(=O)N[C@H]1CCN(CC(F)(F)F)CC/C=C\[C@@H]2C[C@@]2(C(=O)NS(=O)(=O)C2CC2)NC(=O)[C@@H]2C[C@@H](OC(=O)N3Cc4cccc(F)c4C3)CN2C1=O
32	4.2	–	CC(C)(C)OC(=O)N[C@H]1CCCCC/C=C\[C@@H]2C[C@@]2(C(=O)NS(=O)(=O)NC2CC2)NC(=O)[C@@H]2C[C@@H](OC(=O)N3Cc4ccccc4C3)CN2C1=O
41	2	–	CN1CCN(c2ccc3c(c2)CN(C(=O)O[C@@H]2C[C@H]4C(=O)N[C@]5(C(=O)NS(=O)(=O)C6CC6)C[C@H]5/C=C\CCCCC[C@H](NC(=O)OC(C)(C)C)C(=O)N4C2)C3)CC1
3220	38	–	CC(C)(C)OC(=O)N[C@H]1CCCCC/C=C\[C@@H]2C[C@@]2(C(=O)O)NC(=O)[C@@H]2C[C@@H](OC(=O)N3Cc4ccc(F)cc4C3)CN2C1=O
20	2.4	–	CN(C)c1cccc2c1CCN(C(=O)O[C@@H]1C[C@H]3C(=O)N[C@]4(C(=O)NS(=O)(=O)C5CC5)C[C@H]4/C=C\CCCCC[C@H](NC(=O)OC(C)(C)C)C(=O)N3C1)C2
32	0.5	–	CC(C)(C)OC(=O)N[C@H]1CCCCC/C=C\[C@@H]2C[C@@]2(C(=O)NS(=O)(=O)c2cc(Cl)sc2Cl)NC(=O)[C@@H]2C[C@@H](OC(=O)N3Cc4ccccc4C3)CN2C1=O
285	0.7	–	CC(C)(C)OC(=O)N[C@H]1CCCCC/C=C\[C@@H]2C[C@@]2(C(=O)NS(=O)(=O)c2cc(F)ccc2F)NC(=O)[C@@H]2C[C@@H](OC(=O)N3Cc4ccccc4C3)CN2C1=O
